According to patent US20260234165A1, “MACROCYCLIC COMPOUNDS, PREPARATION METHOD THEREFOR, AND USE THEREOF” (GENFLEET THERAPEUTICS (SHANGHAI) INC., priority 2004, published 2026):
Counter-ions that a name gives are not always drawn. Like-named read-outs stand apart in the source and are kept apart here.

Legend:
Type in all cases: cell-based, human
[1] = test system: p-ERK in AsPC-1 cells (KRAS G12D mutation); assay: Cell p-ERK assay (HTRF) in AsPC-1 cells; details: AsPC-1 cells, 3 h compound incubation, HTRF p-ERK T202/Y204, read-out: AsPC-1 p-ERK IC50
Procedure, shortened: (§1)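 AsPC-1 (10000/well) or NCI-H441 (20000/well) cells were seeded overnight, then treated 3 h at 37° C. with 3.16-fold compound dilutions (0.1% DMSO final). Lysates were probed 4 h for phospho-ERK T202/Y204 by HTRF; inhibition versus DMSO and blank wells gave IC50 from four-parameter fits.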

[2] = test system: AsPC-1 cells (KRAS G12D mutation); assay: 3D cell proliferation assay (CellTiter Glo-3D), AsPC-1; details: medium with 2% FBS, read-out: AsPC-1 AP IC50
Text: MIA PaCa-2 cells were purchased from ATCC, Cat. No. CRL-1420; AsPC-1 cells were purchased from ATCC, Cat. No. CRL-1682; NCI-H441 cells were purchased from ATCC, Cat. No. HTB-174: NCI-H1975 cells were purchased from ATCC. Cat. No. CRL-5908; DMEM medium was purchased from Gibco, Cat. No. 11995-065: RPMI-1040 medium was purchased from Gibco. Cat. No. H 18754093; FBS was purchased from Gibco, Cat. No. 10099-141C. penicillin, streptomycin double-antibiotic solution (PS) was purchased from Gibco, Cat. No. 15140-122; Horse serum was purchased from Gibco. Cat. No. 16050130: trypsin (containing EDTA) was purchased from Gibco, Cat. No. 25200-072; DMSO was purchased from VWRAMRESCO, Cat. No. 0231-500ML; 384-well cell culture plates were purchased from Corning, Cat. No. 3830; white-bottomed, opaque 384-well assay plates were purchased from Corning, Cat. No. 3570. CellTiter Glo-3D) kit was purchased from Promega. Cat. No. G9683; cell counter was purchased from CHEMOMETEC, model: NC-200: microplate reader was purchased from PerkinElmer, model: EnVision.
MIA PaCa-2, a human pancreatic cancer cell strain endogenously containing a KRAS^G12C mutation, was cultured in a complete medium containing DMEM+10% FBS+2.5% Horse serum+1% PS. AsPC-1, a human pancreatic cancer cell strain endogenously containing a […] mutation, was cultured in a complete medium containing RPMI-1640+10% FBS+1% PS. NCI-H441 cells, a human lung cancer cell strain endogenously containing a […] mutation, were cultured in a complete medium containing RPMI-1640+10% FBS+1% PS. NCI-H1975, a KRAS wild-type human lung cancer cell strain whose cell proliferation depends on KRAS activity, was cultured in a complete medium containing RPMI-1640+10% FBS+1% PS.
The cells were digested with trypsin (containing EDTA), collected in their respective low-serum complete media containing 2% FBS (for MIA Paca-2 cell culture: DMEM+2% FBS+0.5% Horse serum+1% PS), and counted. After the cell density was adjusted as required, 200 MIA PaCa-2 cells, 800 AsPC-1 cells, 800 NCI-H441 cells, or 400 NCI-H1975 cells per well were seeded into a 384-well cell culture plate, with the volume of the medium in each well being 45 μL. The cell culture plate was incubated in an incubator at 37° C. with 5% CO2, overnight. A series of 3.16-fold gradient dilutions of a 1000× compound stock solution were prepared with DMSO, and then diluted 100-fold with the complete medium containing 2% FBS described above to give 10- compound stock solutions. On the day after cell seeding, 5 μL of the 10- compound stock solution was added to each cell culture well. As a result, the final concentration of the compound in the cell culture well became 1×, and the DMSO content in the well was 0.1%. In addition to the compound-treated wells described above, cell-containing DMSO control wells (with 5 μL of the complete medium containing 1% DMSO added to each well) and cell-free medium control wells (containing 50 μL of the complete medium with 2% FBS) were also set. The culture plate was incubated in an incubator at 37° C. with 5% CO2 for another 5 days, and then 30 μL of CellTiter-Glo working solution was added to each well. The mixture was well mixed, incubated for 30 min, left to stand at room temperature for 30 min, and then transferred to a white-bottomed, opaque 384-well assay plate at 40 μL/well. The chemiluminescence values (RLU) were measured using a microplate reader, and the cell proliferation inhibition rate for each well was calculated: IR (%)=(RLUDMSO—RLUcompound)/(RLUDMSO−RLUblank)×100%, where RLUDMSO is the average RLU signal value from the DMSO control well samples, RLUblank is the average RLU signal value from the medium control well samples, and RLUcompound is the RLU signal value from the compound-treated well samples. […]

[3] = test system: p-ERK in NCI-H441 cells (KRAS G12V mutation); assay: Cell p-ERK assay (HTRF) in NCI-H441 cells; details: NCI-H441 cells, 3 h compound incubation, HTRF p-ERK T202/Y204, read-out: H441 p-ERK IC50
Procedure, shortened: as §1

NCI-H441 cells = assay: 3D cell proliferation assay (CellTiter Glo-3D), NCI-H441; details: medium with 2% FBS, read-out: H441 AP IC50
Procedure, shortened: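 Cells seeded at 800 per well in medium with 2% FBS, treated next day with 3.16-fold dilution series (0.1% DMSO) for 5 days at 37°C. Viability by CellTiter-Glo 3D luminescence; inhibition normalised to DMSO and cell-free controls, IC50 by four-parameter fit.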

[4] = Homo sapiens, ASPC1, 3D cell proliferation (CellTiter Glo-3D)
[5] = Homo sapiens, NCI-H441, 3D cell proliferation (CellTiter Glo-3D)
[6] = 3D cell proliferation (CellTiter Glo-3D)

| SMILES | IC50 ([1]; Homo sapiens, ASPC1, 3 h) [nM] | IC50 [2, 4] [nM] | IC50 ([3]; Homo sapiens, NCI-H441, 3 h) [nM] | IC50 (NCI-H441 cells; [5]) [nM] | IC50 [1] [nM] | IC50 [2, 6] [nM] | IC50 [3] [nM] | IC50 (NCI-H441 cells; [6]) [nM] |
| --- | --- | --- | --- | --- | --- | --- | --- | --- |
| [2H]C([2H])([2H])O[C@@H](C)c1ncc(N2CCN(C)CC2)cc1-c1c2c3cc(ccc3n1CC)-c1csc(n1)C[C@H](NC(=O)C(C)(C)F)C(=O)N1CCC[C@H](N1)C(=O)OCC(C)(C)C2 (atropisomer, axis not shown; (Ra)) [Compound Z64, N-((1^2R,6^3S,4S,Z)-1^1-ethyl-(Ra)-1^2-(2-((S)-1-(methoxy-d3)ethyl)-5-(4-methylpiperazin-1-yl)pyridin-3-yl)-10,10-dimethyl-5,7-dioxo-6^1,6^2,6^3,6^4,6^5,6^6-hexahydro-1^1H-8-oxa-2(4,2)-thiazola-1(5,3)-indola-6(1,3)-pyridazinacycloundecaphane-4-yl)-2-fluoro-2-methylpropanamide] | 6.24 | 12.8 | 3.32 | 6.27 | – | – | – | – |
| CO[C@@H](C)c1ncc(C#CCN2CCC2)cc1-c1c2c3cc(ccc3n1CC(F)(F)F)-c1csc(n1)C[C@H](NC(=O)[C@H]1[C@H](C)[C@@H]1C)C(=O)N1CCC[C@H](N1)C(=O)OCC(C)(C)C2 (atropisomer, axis not shown; (Ra)) [Compound Z362-2, (1r,2R,3S)—N-((6^3S,4S,Z)-1′-(5-(3-(azetidin-1-yl)prop-1-yn-1-yl)-(Ra)-2-((S)-1-methoxyethyl)pyridin-3-yl)-10,10-dimethyl-5,7-dioxo-1^1-(2,2,2-trifluoroethyl)-6^1,6^2,6^3,6^4,6^5,6^6-hexahydro-1^1H-8-oxa-2(4,2)-thiazola-1(5,3)-indola-6(1,3)-pyridazinacycloundecaphane-4-yl)-2,3-dimethylcyclopropane-1-carboxamide] | 0.48 | 0.82 | 0.71 | 0.67 | – | – | – | – |
| CCn1c(-c2cc(OCCN3CCOC4(CC4)C3)cnc2[C@H](C)OC)c2c3cc(ccc31)-c1csc(n1)C[C@H](NC(=O)[C@H]1[C@H](C)[C@@H]1C)C(=O)N1CCC[C@H](N1)C(=O)OCC1(CC1)C2 (atropisomer, axis not shown; (Ra)) [Compound Z375] | 3.92 | 6.9 | 0.91 | 3.7 | – | – | – | – |

The next lines start with the values.

| IC50 ([1]; Homo sapiens, ASPC1, 3 h) [nM] | IC50 [2, 4] [nM] | IC50 ([3]; Homo sapiens, NCI-H441, 3 h) [nM] | IC50 (NCI-H441 cells; [5]) [nM] | IC50 [1] [nM] | IC50 [2, 6] [nM] | IC50 [3] [nM] | IC50 (NCI-H441 cells; [6]) [nM] | SMILES |
| --- | --- | --- | --- | --- | --- | --- | --- | --- |
| – | – | – | – | 2.72 | 20.9 | 4.26 | 5.69 | CCn1c(-c2cc(N3CCN(C)CC3)cnc2[C@H](C)OC)c2c3cc(ccc31)-c1csc(n1)C[C@H](NC(=O)C(C)(C)F)C(=O)N1CCC[C@H](N1)C(=O)OCC(C)(C)C2 (atropisomer, axis not shown; (Ra)) [Compound Z66, N-((6^3S,4S,Z)-1^1-ethyl-(Ra)-1^2-(2-((S)-1-methoxyethyl)-5-(4-(methyl-d3)piperazin-1-yl)pyridin-3-yl)-10,10-dimethyl-5,7-dioxa-6^1,6^2,6^3,6^4,6^5,6^6-hexahydro-1^1H-8-oxa-2(4,2)-thiazola-1(5,3)-indola-6(1,3)-pyridazinacycloundecaphane-4-yl)-2-fluoro-2-methylpropanamide] |
| 96.4 | 302 | 41.7 | 149 | – | – | – | – | CCn1c(-c2cc(N3CCN(C)CC3)cnc2[C@H](C)OC)c2c3cc(ccc31)-c1csc(n1)C[C@H](NC1=NCCO1)C(=O)N1CCC[C@H](N1)C(=O)OCC(C)(C)C2 (atropisomer, axis not shown; (Ra)) [Compound Z71, (6^3S,4S,Z)-1^1-ethyl-(Ra)-1^2-(2-((S)-1-methoxyethyl)-5-(4-methylpiperazin-1-yl)pyridin-3-yl)-10,10-dimethyl-4-((4.5-dihydrooxazol-2-yl)amino)-6^1,6^2,6^3,6^4,6^5,6^6-hexahydro-1^1H-8-oxa-2(4,2)-thiazola-1(5,3)-indola-6(1,3)-pyridazinacycloundecaphane-5,7-dione formate] |
| – | – | – | – | 0.21 | 0.65 | 0.24 | 0.35 | CCn1c(-c2cc(N3CCN4CCOC[C@@H]4C3)cnc2[C@H](C)OC)c2c3cc(ccc31)-c1csc(n1)C[C@H](NC(=O)[C@H]1[C@H](C)[C@@H]1C)C(=O)N1CCC[C@H](N1)C(=O)OCC(C)(C)C2 (atropisomer, axis not shown; (Ra)) [Compound Z73, (1r,2R,3S)—N-((6^3S,4S,Z)-1^1-ethyl-(Ra)-1^2-(5-((S)-hexahydropyrazino[2,1-c][1,4]oxazin-8(1H)-yl)-2-((S)-1-(methoxy-d3)ethyl)pyridin-3-yl)-10,10-dimethyl-5,7-dioxo-6^1,6^2,6^3,6^4,6^5,6^6-hexahydro-1^1H-8-oxa-2(4,2)-thiazola-1(5,3)-indola-6(1,3)-pyridazinacycloundecaphane-4-yl)-2,3-dimethylcyclopropane-1-carboxamide] |
| – | 2.09 | – | 0.62 | 0.38 | – | 0.96 | – | C=C1CCN2CCN(c3cnc([C@H](C)OC)c(-c4c5c6cc(ccc6n4CC)-c4csc(n4)C[C@H](NC(=O)[C@H]4[C@H](C)[C@@H]4C)C(=O)N4CCC[C@H](N4)C(=O)OCC(C)(C)C5)c3)C[C@H]2C1 (atropisomer, axis not shown; (Ra)) [Compound Z309, (1r,2R,3S)—N-((6^3S,4S,Z)-1^1-ethyl-(Ra)-1^2-(2-((S)-1-methoxyethyl)-5-((R)-8-methyleneoctahydro-2H-pyrido[1,2-a]pyrazin-2-yl)pyridin-3-yl)-10,10-dimethyl-5,7-dioxo-6^1,6^2,6^3,6^4,6^5,6^6-hexahydro-1^1H-8-oxa-2(4,2)-thiazola-1(5,3)-indola-6(1,3)-pyridazinacycloundecaphane-4-yl)-2,3-dimethylcyclopropane-1-carboxamide] |
